Values belong to the compound of their own block, whether it stands above or below them.
Key:
[1] = biological target: Serine-protein kinase ATM (Homo sapiens, UniProt Q13315); test: Inhibition of ATM
[2] = biological target: Serine/threonine-protein kinase ATR (Homo sapiens, UniProt Q13535); test: Inhibition of ATR
[3] = biological target: Inhibitor of nuclear factor kappa-B kinase subunit beta (Homo sapiens, UniProt O14920); test: Inhibition of IKK-beta
[4] = biological target: Cyclin-dependent kinase 1 (Homo sapiens, UniProt P06493); test: Inhibition of Cdk1
[5] = biological target: Tyrosine-protein kinase Fyn (Homo sapiens, UniProt P06241); test: Inhibition of Fyn
[6] = biological target: Ephrin type-B receptor 3 (Homo sapiens, UniProt P54753); test: Inhibition of EphB3
[7] = biological target: Protein kinase C delta type (Homo sapiens, UniProt Q05655); test: Inhibition of PKCdelta
[8] = biological target: Protein kinase C alpha type (Homo sapiens, UniProt P17252); test: Inhibition of PKCalpha
[9] = Inhibition of SGK
[10] = Inhibition of Cdk4/cyclin D
[11] = Inhibition of Cdk1/cyclin A
[12] = biological target: RAC-alpha serine/threonine-protein kinase (Homo sapiens, UniProt P31749); test: Inhibition of AKT
[13] = biological target: Protein kinase C beta type (Homo sapiens, UniProt P05771); test: Inhibition of PKCbeta
[14] = Inhibition of CaM-K2
[15] = biological target: Mitogen-activated protein kinase 1 (Homo sapiens, UniProt P28482); test: Inhibition of ERK2
[16] = biological target: Calcium/calmodulin-dependent protein kinase type IV (Homo sapiens, UniProt Q16566); test: Inhibition of CaM-K4
[17] = Inhibition of CaM-K1
[18] = biological target: T1, Myosin light chain kinase, smooth muscle (Homo sapiens, UniProt Q15746); test: Binding affinity at MLCK
[19] = Inhibition Cdk1/cyclin E
[20] = biological target: Proto-oncogene tyrosine-protein kinase Src (Homo sapiens, UniProt P12931); test: Inhibition of Src; conditions: read-out: IC50
[21] = system: A-375; test: Antiproliferative activity against human A375 cells; type: functional, cell-based
[22] = Inhibition of serum-stimulated Akt kinase phosphorylation in human A375 cells; type: cell-based; conditions: A-375
[23] = Inhibition of mouse CaM kinase 2
[24] = biological target: Vascular endothelial growth factor receptor 2 (Homo sapiens, UniProt P35968); test: Inhibition of KDR
[25] = biological target: T2, Glycogen synthase kinase-3 beta (Homo sapiens, UniProt P49841); test: Binding affinity to GSK3-beta
[26] = biological target: T2, Glycogen synthase kinase-3 beta; test: Inhibition of GSK3-beta; conditions: read-out: IC50
[27] = biological target: Dual specificity mitogen-activated protein kinase kinase 1 (Homo sapiens, UniProt Q02750)
[28] = biological target: Epidermal growth factor receptor (Homo sapiens, UniProt P00533)
[29] = biological target: Mitogen-activated protein kinase 10 (Homo sapiens, UniProt P53779)
[30] = biological target: Tyrosine-protein kinase Lck (Homo sapiens, UniProt P06239)
[31] = biological target: T1, Myosin light chain kinase, smooth muscle; test: Inhibition of myosin light chain kinase
[32] = biological target: T3, Protein kinase C epsilon type (Homo sapiens, UniProt Q02156); test: Inhibition of PKCepsilon
T3 sequence (Q02156 whole entry): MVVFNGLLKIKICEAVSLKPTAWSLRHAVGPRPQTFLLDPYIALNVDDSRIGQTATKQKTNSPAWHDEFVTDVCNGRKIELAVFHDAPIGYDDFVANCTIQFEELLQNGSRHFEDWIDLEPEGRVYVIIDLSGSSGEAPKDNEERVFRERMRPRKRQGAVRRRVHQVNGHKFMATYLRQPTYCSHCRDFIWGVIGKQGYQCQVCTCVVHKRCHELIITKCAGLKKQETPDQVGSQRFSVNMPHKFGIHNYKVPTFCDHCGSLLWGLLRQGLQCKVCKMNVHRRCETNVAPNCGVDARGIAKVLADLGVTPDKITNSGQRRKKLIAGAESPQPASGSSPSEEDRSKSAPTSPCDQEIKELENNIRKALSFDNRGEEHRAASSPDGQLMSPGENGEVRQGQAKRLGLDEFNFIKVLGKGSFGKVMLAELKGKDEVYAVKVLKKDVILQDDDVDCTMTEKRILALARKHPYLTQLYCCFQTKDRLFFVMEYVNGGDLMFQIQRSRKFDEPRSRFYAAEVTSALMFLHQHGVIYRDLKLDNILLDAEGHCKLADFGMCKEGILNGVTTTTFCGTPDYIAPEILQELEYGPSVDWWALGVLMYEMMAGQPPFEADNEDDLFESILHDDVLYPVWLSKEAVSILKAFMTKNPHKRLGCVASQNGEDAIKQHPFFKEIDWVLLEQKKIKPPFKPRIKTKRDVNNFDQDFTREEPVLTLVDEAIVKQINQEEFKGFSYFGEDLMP

[33] = Inhibition of Cdk5/p35

T1 sequence (Q15746 whole entry): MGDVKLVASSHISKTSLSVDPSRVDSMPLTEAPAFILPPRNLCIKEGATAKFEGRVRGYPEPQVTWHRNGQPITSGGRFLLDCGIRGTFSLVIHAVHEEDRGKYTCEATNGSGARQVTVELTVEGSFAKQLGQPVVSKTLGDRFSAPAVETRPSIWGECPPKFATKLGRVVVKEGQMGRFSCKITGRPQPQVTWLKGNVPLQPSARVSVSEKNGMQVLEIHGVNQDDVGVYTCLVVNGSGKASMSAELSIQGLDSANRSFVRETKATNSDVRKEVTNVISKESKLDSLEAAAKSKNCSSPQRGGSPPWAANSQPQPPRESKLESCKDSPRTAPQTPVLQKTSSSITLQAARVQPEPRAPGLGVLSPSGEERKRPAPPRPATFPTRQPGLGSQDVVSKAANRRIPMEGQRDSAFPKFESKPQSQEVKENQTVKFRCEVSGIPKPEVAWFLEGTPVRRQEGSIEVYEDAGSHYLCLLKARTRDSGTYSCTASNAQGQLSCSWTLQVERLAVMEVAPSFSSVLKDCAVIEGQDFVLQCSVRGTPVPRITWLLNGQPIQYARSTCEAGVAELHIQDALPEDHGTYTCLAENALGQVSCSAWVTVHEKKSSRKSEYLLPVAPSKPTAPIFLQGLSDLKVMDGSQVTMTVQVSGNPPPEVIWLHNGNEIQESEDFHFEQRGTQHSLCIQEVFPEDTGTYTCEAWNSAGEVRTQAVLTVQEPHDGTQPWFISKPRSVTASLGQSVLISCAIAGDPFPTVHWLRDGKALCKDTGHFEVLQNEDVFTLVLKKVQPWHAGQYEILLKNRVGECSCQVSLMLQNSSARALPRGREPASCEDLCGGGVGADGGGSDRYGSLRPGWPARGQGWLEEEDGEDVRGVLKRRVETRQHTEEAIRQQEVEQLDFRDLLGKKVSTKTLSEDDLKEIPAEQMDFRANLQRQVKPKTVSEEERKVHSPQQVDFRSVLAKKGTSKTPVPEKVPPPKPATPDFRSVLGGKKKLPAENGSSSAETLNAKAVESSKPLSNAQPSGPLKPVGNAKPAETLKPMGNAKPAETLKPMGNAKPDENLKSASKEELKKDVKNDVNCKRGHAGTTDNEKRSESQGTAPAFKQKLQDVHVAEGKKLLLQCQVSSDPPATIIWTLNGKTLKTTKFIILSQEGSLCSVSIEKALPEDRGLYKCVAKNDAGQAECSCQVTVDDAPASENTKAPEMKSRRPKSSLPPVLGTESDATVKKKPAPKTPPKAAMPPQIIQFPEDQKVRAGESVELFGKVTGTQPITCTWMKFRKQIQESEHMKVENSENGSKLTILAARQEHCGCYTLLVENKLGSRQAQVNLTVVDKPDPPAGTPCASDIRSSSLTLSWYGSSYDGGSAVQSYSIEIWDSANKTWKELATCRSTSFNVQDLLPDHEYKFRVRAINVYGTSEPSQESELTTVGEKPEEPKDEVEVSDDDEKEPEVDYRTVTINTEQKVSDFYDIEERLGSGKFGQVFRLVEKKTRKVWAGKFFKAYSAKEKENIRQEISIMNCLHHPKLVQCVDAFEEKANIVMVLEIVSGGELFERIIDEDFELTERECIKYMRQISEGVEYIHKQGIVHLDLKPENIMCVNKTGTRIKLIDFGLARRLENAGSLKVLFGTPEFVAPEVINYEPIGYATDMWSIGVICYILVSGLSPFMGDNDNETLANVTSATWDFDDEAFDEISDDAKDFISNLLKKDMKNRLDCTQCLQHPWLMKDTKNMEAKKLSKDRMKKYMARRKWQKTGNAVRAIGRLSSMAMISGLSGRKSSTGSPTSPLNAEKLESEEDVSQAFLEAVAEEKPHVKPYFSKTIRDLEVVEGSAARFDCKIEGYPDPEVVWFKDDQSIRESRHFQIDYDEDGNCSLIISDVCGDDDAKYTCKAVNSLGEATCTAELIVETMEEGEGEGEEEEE
T2 sequence (P49841 whole entry): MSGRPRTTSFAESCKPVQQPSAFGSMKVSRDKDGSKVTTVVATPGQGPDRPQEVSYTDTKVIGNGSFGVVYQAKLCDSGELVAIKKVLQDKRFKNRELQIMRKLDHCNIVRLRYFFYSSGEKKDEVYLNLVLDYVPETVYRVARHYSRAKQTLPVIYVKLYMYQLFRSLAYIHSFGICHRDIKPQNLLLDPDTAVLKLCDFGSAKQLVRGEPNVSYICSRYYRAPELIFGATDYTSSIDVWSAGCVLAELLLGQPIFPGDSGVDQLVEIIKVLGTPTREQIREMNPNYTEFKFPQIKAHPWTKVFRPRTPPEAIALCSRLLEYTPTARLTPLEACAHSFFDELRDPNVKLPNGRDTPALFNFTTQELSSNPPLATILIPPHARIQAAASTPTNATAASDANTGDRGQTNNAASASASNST
Vascular endothelial growth factor receptor 2, sequence (P35968 whole entry): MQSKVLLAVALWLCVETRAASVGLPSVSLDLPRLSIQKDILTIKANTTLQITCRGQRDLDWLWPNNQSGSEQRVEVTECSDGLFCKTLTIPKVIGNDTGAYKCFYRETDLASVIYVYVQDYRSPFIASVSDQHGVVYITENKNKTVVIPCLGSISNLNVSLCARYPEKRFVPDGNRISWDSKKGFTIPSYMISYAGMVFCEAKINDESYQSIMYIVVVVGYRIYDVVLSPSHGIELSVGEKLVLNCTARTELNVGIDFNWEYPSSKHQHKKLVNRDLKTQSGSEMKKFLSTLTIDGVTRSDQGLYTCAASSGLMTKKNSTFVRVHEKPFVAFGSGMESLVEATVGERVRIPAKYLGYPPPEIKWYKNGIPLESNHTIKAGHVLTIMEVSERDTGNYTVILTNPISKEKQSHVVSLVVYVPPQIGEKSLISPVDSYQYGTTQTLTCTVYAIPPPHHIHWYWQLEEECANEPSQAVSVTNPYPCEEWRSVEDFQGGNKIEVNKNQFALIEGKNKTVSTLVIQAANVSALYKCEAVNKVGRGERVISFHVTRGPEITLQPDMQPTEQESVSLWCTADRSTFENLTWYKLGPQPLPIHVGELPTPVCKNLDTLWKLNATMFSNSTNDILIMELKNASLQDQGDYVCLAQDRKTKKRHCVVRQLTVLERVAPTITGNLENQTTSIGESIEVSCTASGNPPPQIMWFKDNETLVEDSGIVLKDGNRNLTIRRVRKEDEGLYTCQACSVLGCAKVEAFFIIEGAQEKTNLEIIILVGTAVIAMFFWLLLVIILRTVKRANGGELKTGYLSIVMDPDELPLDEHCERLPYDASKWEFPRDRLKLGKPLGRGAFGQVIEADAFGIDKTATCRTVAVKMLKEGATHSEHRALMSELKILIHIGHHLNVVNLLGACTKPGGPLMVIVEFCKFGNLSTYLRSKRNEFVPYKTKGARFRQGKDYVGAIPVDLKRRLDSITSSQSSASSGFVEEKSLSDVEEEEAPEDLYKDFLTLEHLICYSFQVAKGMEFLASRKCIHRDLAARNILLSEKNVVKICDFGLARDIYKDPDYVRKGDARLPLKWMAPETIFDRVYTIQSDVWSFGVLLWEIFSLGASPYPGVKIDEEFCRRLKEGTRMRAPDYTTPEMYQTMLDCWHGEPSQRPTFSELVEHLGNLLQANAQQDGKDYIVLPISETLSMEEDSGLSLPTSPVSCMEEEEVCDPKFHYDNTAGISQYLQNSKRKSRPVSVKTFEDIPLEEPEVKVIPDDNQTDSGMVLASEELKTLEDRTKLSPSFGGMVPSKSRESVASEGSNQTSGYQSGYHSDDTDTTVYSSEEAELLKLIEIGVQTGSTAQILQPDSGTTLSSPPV
Cyclin-dependent kinase 1, sequence (P06493 whole entry): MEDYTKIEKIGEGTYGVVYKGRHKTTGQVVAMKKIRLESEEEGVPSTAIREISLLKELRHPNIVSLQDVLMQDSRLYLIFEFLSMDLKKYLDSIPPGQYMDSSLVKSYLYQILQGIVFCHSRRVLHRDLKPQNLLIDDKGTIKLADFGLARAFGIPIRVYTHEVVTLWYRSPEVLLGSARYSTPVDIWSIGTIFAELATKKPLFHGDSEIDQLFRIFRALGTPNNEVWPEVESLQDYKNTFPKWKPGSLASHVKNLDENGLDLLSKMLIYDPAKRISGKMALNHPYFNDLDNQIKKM
Dual specificity mitogen-activated protein kinase kinase 1, sequence (Q02750 whole entry): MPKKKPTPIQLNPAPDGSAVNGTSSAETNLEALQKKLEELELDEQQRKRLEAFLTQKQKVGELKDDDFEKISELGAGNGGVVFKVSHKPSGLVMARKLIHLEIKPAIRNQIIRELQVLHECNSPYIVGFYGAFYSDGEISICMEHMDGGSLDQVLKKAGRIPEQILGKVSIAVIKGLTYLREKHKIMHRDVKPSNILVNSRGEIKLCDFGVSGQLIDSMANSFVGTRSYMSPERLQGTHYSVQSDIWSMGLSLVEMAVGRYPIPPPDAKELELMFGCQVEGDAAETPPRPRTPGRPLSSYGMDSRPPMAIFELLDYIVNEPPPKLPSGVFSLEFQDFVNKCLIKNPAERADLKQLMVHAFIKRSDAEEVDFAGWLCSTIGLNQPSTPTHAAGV

SMILES: NC(N)=S [THIOUREA]
- IC50 [1]: 0.2 µM
- IC50 [2]: 200 nM

- IC50 [3]: 13 nM
SMILES: NC(=O)Nc1sc(-c2ccccc2)cc1C(N)=O

- IC50 [4]: 5 nM
SMILES: O=Nc1c(-c2c(O)[nH]c3ccc(I)cc23)[nH]c2ccccc12

- Ki [5]: > 2000 nM
- Ki [6]: > 2000 nM
- Ki [7]: 318 nM
- Ki [8]: > 2000 nM
- Ki [9]: 497 nM
- Ki [10]: > 2000 nM
- Ki [11]: 110 nM
- Ki [12]: > 2000 nM
SMILES: O=C1N=C(NCc2cccs2)S/C1=C/c1ccc2ncccc2c1

- IC50 [13]: 2 nM
- IC50 [8]: 0.002 µM
SMILES: Cn1c2ccccc2c2c3c(c4c5ccccc5n(CCC#N)c4c21)CNC3=O [GO-6976]

- IC50 [14]: 10 µg/mL
- IC50 [15]: > 26.7 µM
- IC50 [16]: > 26.7 µM
- IC50 [17]: > 10000 ng/mL
- IC50 [18]: 26.7 µM
SMILES: CC(=O)O.O=C(O)c1ccc2c3c1cccc3c(=O)n1c3ccccc3nc21

- IC50 [19]: 210 nM
- IC50 [20]: 430 nM
SMILES: O=C1Nc2ccccc2/C1=C1/Nc2ccccc2/C1=N\OCC(O)CO (configuration not stated)

SMILES: Oc1cccc(-c2nc(N3CCOCC3)c3sccc3n2)c1
- IC50 [8]: ≥ 3.4 µM
- IC50 [21]: 580 nM
- IC50 [22]: < 3000 nM
- IC50 [23]: 370 nM
- IC50 [24]: ≥ 3.4 µM

- Kd [25]: 126 nM
- IC50 [26]: 30 nM
SMILES: CC(C)n1cnc2c(Nc3cccc(Cl)c3)nc(NCCO)nc21

SMILES: O=C1C=CC(=O)c2ccccc21 [NAPHTHOQUINONE]
- IC50 [27]: 380 nM

- IC50 [8]: 6.1 µM
- IC50 [28]: > 10 µM
SMILES: CCn1cnc2c(N)nc(N(c3cccc(Cl)c3)[C@@H]3CCCC[C@@H]3N)nc21 (relative stereo)

- IC50 [1]: 17.6 µM
SMILES: CCN(CC)CCCCNc1ncc2cc(-c3cc(OC)cc(OC)c3)c(NC(=O)NC(C)(C)C)nc2n1 [PD-173074]

SMILES: Oc1c2ccccc2c2c3c(cccc13)N=N2 [SP-600125]
- IC50 [29]: 90 nM

SMILES: COc1c(C=O)c(O)cc2c1C(=O)c1ccccc1C2=O [DAMNACANTHAL]
- IC50 [30]: 620 nM

- IC50 [31]: 3.6 µM
SMILES: O=S(=O)(c1cccc2cnccc12)N1CCCNCC1 [FASUDIL]

- IC50 [32]: 175 nM
SMILES: COCc1cc(O)c(O)c(O)c1-c1c(COC)cc(O)c(O)c1O

- IC50 [33]: 75 nM
SMILES: CC(C)[C@H](CO)Nc1nc(Nc2cccc(Cl)c2)c2ncn(C(C)C)c2n1 [PURVALANOLA]
